# Columns and labels:
# [1] = CED, 20 μl, DOX 0.2 mg/ml, a week after infusion
# [2] = Drug loading of micelles (thin film hydration, HPLC); type: physicochemical; conditions: drug encapsulated in dC18-1coi(P2K)-P750 micelles
# Description: DOX, paclitaxel and rapamycin loaded micelles were prepared using identical procedures by thin film hydration method. dC18-1coi(P2K)-P750 and the different drugs were dissolved in methanol in a glass vial and the solvent was evaporated in vacuum oven for 3 hours. The dried film containing the conjugate and drug was rehydrated with 25 mM phosphate buffer, pH 7.4, and the solution was stirred for 16 hours to allow the assembly into drug loaded 3-helix micelles. Free drug was removed by centrifugation followed by spin ultrafiltration (Amicon centrifugal filter units, MW cutoff: 3000 Da). The concentrate obtained was washed with water and lyophilized to obtain drug loaded micelles. The drug loaded micelles were dissolved in methanol and loading was determined by reverse phase HPLC monitoring the absorbance of drugs at 280 nm. For all characterization experiments of drug loaded micelles, lyophilized powder of micellar-drugs was dissolved in 25 mM phosphate buffer, pH 7.4, and the solution was heated in water bath at 60° C. for an hour to break potential aggregates to obtain a clear solution.
# The solvent was evaporated in vacuum oven for 3 hours. […] The salts and free drug were removed by centrifugation followed by spin ultrafiltration (Amicon centrifugal filter units, MW cutoff: 3000 Da). […]
# Drug loading content was determined by HPLC. […]
# NDL tumors [3] = conditions: stated as known; cited from earlier work
# NDL tumors [4] = assay: Intravenous DOX-loaded micelles: organ fluorescence in NDL tumor mice; type: in vivo, FVB mice; conditions: 24 and 72 h
structure (smiles),measurement,setting,value
"COc1cccc2c1C(=O)c1c(O)c3c(c(O)c1C2=O)C[C@@](O)(C(=O)CO)C[C@@H]3O[C@H]1C[C@H](N)[C@H](O)[C@H](C)O1 [Doxorubicin, doxorubicin]",brain tissue toxicity (H&E staining),[1],significant tissue damage
same,Loading (wt %),[2],7.6 ± 0.4 wt %
same,clearance time from blood circulation,NDL tumors [3],tens of minutes
same,fluorescence in different organs after free DOX injections,NDL tumors [4],cannot be detected
"CC(=O)O[C@H]1C(=O)[C@@]2(C)[C@H]([C@H](OC(=O)c3ccccc3)[C@]3(O)C[C@H](OC(=O)[C@H](O)[C@@H](NC(=O)c4ccccc4)c4ccccc4)C(C)=C1C3(C)C)[C@]1(OC(C)=O)CO[C@@H]1C[C@@H]2O [Paclitaxel, paclitaxel]",Loading (wt %),[2],1.9 ± 0.4 wt %

# Reference: patent publication US10806702B2, “Bis-polymer lipid-peptide conjugates and nanoparticles thereof” (THE REGENTS OF THE UNIVERSITY OF CALIFORNIA, priority 2012, dated 2020)
